Source: US20080207671A1, “Diagnosis and treatment of diseases arising from defects in the tuberous sclerosis pathway” (The Regents of the University of Michigan, priority 2006, published 2008)
“Also recorded” adds a separate entry of the source.

Columns and labels:
[1] = test system: TSC2; test: TSC2/TSC1 phosphorylation in transfected HEK293 cells (mobility shift, 32P labelling, two-dimensional phosphopeptide mapping); format: cell-based, human
Protocol: (§1) HEK293 cells were seeded and maintained in Dulbecco's modified Eagle's medium (DMEM) containing 10% fetal bovine serum (FBS). Transfection was performed in serum-free conditions using Lipofectamine reagent (Invitrogen, Carlsbad, Calif.) in accordance with the manufacturer's instructions. In brief, 4 h after transfection, the cells were recovered in DMEM containing 10% FBS for 16 h and then starved for 16-24 h. Cells were then lysed in lysis buffer (10 mM Tris-HCl at pH 7.5, 100 mM sodium chloride, 1% NP-40, 1% Triton X-100, 50 mM sodium fluoride, 2 mM EDTA, 1 mM phenyl methylsulphonyl fluoride, 10 μg ml^−1 leupeptin and 10 μg ml^−1 aprotinine) and immunoprecipitated with the indicated antibodies and protein G-Sepharose beads. Immunocomplexes were analyzed by SDS-polyacrylamide gel electrophoresis (PAGE).
HEK293 cells were cotransfected with HA-tagged TSC2, Myc-tagged TSC1 and the indicated plasmids. Cells were phosphate- and serum-starved for 4 h before incubation with 0.25 mCi ml^−1 32P-orthophosphate (ICN) for 4 h.
Cells were washed once with ice-cold PBS and lysed. HA-tagged TSC2 was immunoprecipitated, resolved by SDS-PAGE and transferred to a PVDF membrane. Phosphorylated TSC2 was visualized by autoradiography and phosphopeptide mapping was then performed. In brief, the phosphorylated TSC2 bands were excised, fixed in methanol and incubated in 500 μl of 0.5% polyvinylpyrrolidone-40 dissolved in 100 mM acetic acid for 30 min at 37° C. The sample were then digested with 20 μg of TPCK-treated trypsin (Sigma) at 37° C. in 75 mM ammonium bicarbonate buffer at pH 8.0 containing 5% acetonitrile. After digestion, samples were dried under vacuum and suspended in 10 μl of water. Samples were spotted onto a cellulose plate and first dimensional electrophoresis was performed using 1% ammonium bicarbonate buffer at pH 8.9. The plates were separated by chromatography in the second dimension in chromatography buffer (n-butanol:pyridine:acetic acid:water; 20:24:6:30). The plates were dried and phosphopeptides were visualized by autoradiography.

[2] = test system: phosphorylation of S6K, S6, 4EBP1 and mTOR; test: Immunoblot of S6K, S6, 4EBP1 and mTOR phosphorylation in HEK293 cells under energy depletion; format: cell-based, human
Protocol: as §1

[3] = test system: Akt phosphorylation; test: Immunoblot of Akt phosphorylation in HEK293 cells; format: cell-based, human; settings: 25 mM 2-DG
Protocol: as §1

[4] = test system: AMPK; test: Immunoblot of AMPK T172 phosphorylation (AMPK activation); format: cell-based; settings: 25 mM
Protocol: as §1

[5] = test system: intracellular ATP levels; test: Intracellular ATP levels and AMP/ATP ratio; format: cell-based; settings: 25 mM
[6] = test system: AMPK and TSC2 interaction; test: Co-immunoprecipitation of endogenous AMPK and TSC2; format: cell-based, human; settings: HEK293
Protocol: as §1

[7] = test system: acetyl CoA carboxylase (ACC) and eukaryote elongation factor 2 (eEF2); test: Phosphorylation of the AMPK substrates ACC and eEF2; format: cell-based
[8] = test system: EEF4 (TSC2+/+) cells; test: S6K and 4EBP1 phosphorylation in EEF4 (TSC2+/+) fibroblasts; format: cell-based
[9] = test system: EEF8 (TSC2−/−) cells; test: S6K and 4EBP1 phosphorylation in EEF8 (TSC2-/-) fibroblasts; format: cell-based
[10] = test system: HEK293 cells; test: Cell size of HEK293 cells by FACS; format: cell-based, human; settings: 12.5 mM 2-DG or 20 nM rapamycin, 72 hours
Protocol: FIGS. 17a-17b show TSC2 plays roles for cell size control in response to energy starvation. […] HEK293 cells were cultured in the presence of 12.5 mM 2DG, TSC2 RNAi, or 20 nM rapamycin for 72 hours. Cells were harvested and FACS analysis was performed to determine cell size. The X-axis indicates relative cell size. Cell size distribution curve of the control, as indicated by the gray curve, is included in each panel for comparison purposes. […] Experiments are similar to those in panel A.

[11] = test system: AMPK; settings: Corton et al.; cited from earlier work
[12] = test system: eukaryotic elongation factor 2 (eEF2); settings: Horman et al.; cited from earlier work
[13] = test system: S6K and 4EBP1; settings: cited from earlier work

Structure (SMILES): O=CC[C@@H](O)[C@H](O)[C@H](O)CO [2-DG, 2-deoxy-glucose]
- mobility of TSC1 [1]: did not alter the mobility of TSC1
- mobility shift of TSC2 ([1]; 2-DG treatment): mobility shift is due to phosphorylation
- TSC2 phosphorylation (in vivo labeling, two dimensional phosphopeptide mapping) ([1]; 25 and 40 mM): enhanced phosphorylation of several peptides; also recorded: induce TSC2 phosphorylation on multiple spots in vivo
- phosphorylation of S6K on T389 ([2]; 25 mM): effectively inhibited; also recorded: dephosphorylation
- phosphorylation of S6 and 4EBP1 ([2]; 25 mM): dephosphorylation
- phosphorylation of mTOR S2448 ([2]; 25 mM): inhibited; also recorded: dephosphorylation
- S6K phosphorylation in TSC2 RNAi knockdown cells ([2]; HEK293, TSC2 RNAi): blocked in TSC2 knockdown cells, but not in the control cells; also recorded: knockdown of TSC2 by RNA interference blocks the 2-DG response
- phosphorylation of S6K and 4EBP1 ([2]; depletion of cellular ATP): caused a dephosphorylation of S6K and 4EBP1
- Akt phosphorylation [3]: had little effect
- T172 phosphorylation in AMPK [4]: dramatic increase of T172 phosphorylation; also recorded: induces phosphorylation of AMPK
- AMPK activation and S6K dephosphorylation as a function of treatment time ([4]; time course): rapid AMPK activation and concomitant dephosphorylation of S6K
- AMP/ATP ratio [5]: increase; also recorded: increases the AMP/ATP ratio
- ATP levels [5]: statistically significant reduction; also recorded: decreases intracellular ATP levels
- interaction between endogenous AMPK and TSC2 (co-immunoprecipitation) [6]: interact preferentially with AMPK following 2-DG stimulation; also recorded: enhanced; also recorded: enhances the interaction between TSC2 and AMPK; also recorded: stimulates the interaction
- phosphorylation of ACC and eEF2 [7]: 2-DG-induced phosphorylation of ACC and eEF2
- 4EBP1 phosphorylation [8]: inhibition of phosphorylation of 4EBP1
- S6K and 4EBP1 phosphorylation ([9]; EEF8, TSC2 T1227A/S1345A mutant expressing cells): less responsive to 2-DG treatment
- S6K and 4EBP1 phosphorylation ([9]; EEF8, vector infected cells): caused little decrease
- S6K and 4EBP1 phosphorylation ([9]; EEF8, wild type TSC2 expressing cells): significantly decreased
- cell size [10]: significantly decreased cell size; also recorded: decreases cell size
- cell size ([10]; listed as 2DG): decreases cell size
- AMPK activation [11]: activate AMPK
- phosphorylation of eEF2 [12]: increase phosphorylation
- S6K and 4EBP1 phosphorylation ([13]; 20 to 100 mM, Dennis et al., 2001): inhibition of S6K and 4EBP1 phosphorylation
- S6K activity ([13]; Kimura et al., Krause et al.): inhibit S6K activity
